How the values were obtained:
Format in all cases: in vivo
[1] = system: ryegrass, Italian (Italian ryegrass, Lolium multiflorum); assay: Test A preemergence ryegrass, Italian; conditions: 0 to 100 scale, 0 no effect, 100 complete control
Procedure, shortened: (§1)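 Greenhouse pot test: chemicals formulated with surfactant in non-phytotoxic solvent, sprayed on soil at seeding (pre) or on 1–2 leaf seedlings of 2–10 cm (post). Rating ~10 d later, visual, 0 = no effect to 100 = complete control, relative to untreated controls.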

[2] = system: blackgrass (Alopecurus myosuroides); assay: Test A postemergence blackgrass; conditions: 0 to 100 scale, 0 is no effect, 100 is complete control
Procedure, shortened: as §1

[3] = system: ryegrass, Italian (Italian ryegrass, Lolium multiflorum); assay: Test A postemergence ryegrass, Italian; conditions: 0 to 100 scale, 0 is no effect, 100 is complete control
Procedure, shortened: as §1

[4] = system: wheat (Triticum aestivum); assay: Test A postemergence wheat; conditions: 0 to 100 scale, 0 is no effect, 100 is complete control
Procedure, shortened: as §1

[5] = system: galium (catchweed bedstraw, Galium aparine); assay: Test A postemergence galium; conditions: 0 to 100 scale, 0 is no effect, 100 is complete control
Procedure, shortened: as §1

[6] = system: foxtail, giant (giant foxtail, Setaria faberii); assay: Test A preemergence foxtail, giant; conditions: 0 to 100 scale, 0 no effect, 100 complete control
Procedure, shortened: as §1

[7] = system: kochia (Kochia scoparia); assay: Test A preemergence kochia; conditions: 0 to 100 scale, 0 no effect, 100 complete control
Procedure, shortened: as §1

[8] = system: barnyardgrass (Echinochloa crus-galli); assay: Test A preemergence barnyardgrass; conditions: 0 to 100 scale, 0 no effect, 100 complete control
Procedure, shortened: as §1

[9] = system: sedge, umbrella (small-flower umbrella sedge, Cyperus difformis); assay: Test B flooded paddy test sedge, umbrella; conditions: Table B, Flood, scale 0 to 100
Procedure, shortened: (§2)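 Once seedlings reached two leaves, pots were flooded 3 cm deep and treated via the paddy water, which remained at that level. Evaluation was visual, against controls, after 13 to 15 d under greenhouse conditions.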

[10] = system: ragweed (common ragweed, Ambrosia elatior); assay: Test A postemergence ragweed; conditions: 0 to 100 scale, 0 is no effect, 100 is complete control
Procedure, shortened: as §1

[11] = system: pigweed (Amaranthus retroflexus); assay: Test A preemergence pigweed; conditions: 0 to 100 scale, 0 no effect, 100 complete control
Procedure, shortened: as §1

[12] = system: rice (Oryza sativa); assay: Test B flooded paddy test rice; conditions: Table B, Flood, scale 0 to 100
Procedure, shortened: as §2

[13] = system: ragweed (common ragweed, Ambrosia elatior); assay: Test A preemergence ragweed; conditions: 0 to 100 scale, 0 no effect, 100 complete control
Procedure, shortened: as §1

[14] = system: barnyardgrass (Echinochloa crus-galli); assay: Test B flooded paddy test barnyardgrass; conditions: Table B, Flood, scale 0 to 100
Procedure, shortened: as §2

[15] = system: pigweed (Amaranthus retroflexus); assay: Test A postemergence pigweed; conditions: 0 to 100 scale, 0 is no effect, 100 is complete control
Procedure, shortened: as §1

[16] = system: ducksalad (Heteranthera limosa); assay: Test B flooded paddy test ducksalad; conditions: Table B, Flood, scale 0 to 100
Procedure, shortened: as §2

[17] = system: kochia (Kochia scoparia); assay: Test A postemergence kochia; conditions: 0 to 100 scale, 0 is no effect, 100 is complete control
Procedure, shortened: as §1

[18] = system: barnyardgrass (Echinochloa crus-galli); assay: Test A postemergence barnyardgrass; conditions: 0 to 100 scale, 0 is no effect, 100 is complete control
Procedure, shortened: as §1

[19] = system: foxtail, giant (giant foxtail, Setaria faberii); assay: Test A postemergence foxtail, giant; conditions: 0 to 100 scale, 0 is no effect, 100 is complete control
Procedure, shortened: as §1

[20] = system: corn (Zea mays); assay: Test A postemergence corn; conditions: 0 to 100 scale, 0 is no effect, 100 is complete control
Procedure, shortened: as §1

| Compound | Ryegrass, Italian plant response rating ([1]; 125 g ai/ha) | Ryegrass, Italian plant response rating ([1]; 500 g ai/ha) | Plant response rating, Blackgrass ([2]; 125 g ai/ha) | Plant response rating, Blackgrass ([2]; 500 g ai/ha) | Plant response rating, Ryegrass, Italian ([3]; 125 g ai/ha) | Plant response rating, Ryegrass, Italian ([3]; 500 g ai/ha) | Plant response rating, Wheat ([4]; 125 g ai/ha) | Plant response rating, Wheat ([4]; 500 g ai/ha) | Plant response rating, Galium ([5]; 125 g ai/ha) | Plant response rating, Galium ([5]; 500 g ai/ha) | Foxtail, Giant plant response rating ([6]; 125 g ai/ha) | Foxtail, Giant plant response rating ([6]; 500 g ai/ha) | Kochia plant response rating ([7]; 125 g ai/ha) | Kochia plant response rating ([7]; 500 g ai/ha) | Barnyardgrass plant response rating ([8]; 125 g ai/ha) | Barnyardgrass plant response rating ([8]; 500 g ai/ha) | Plant response rating, Ragweed ([10]; 125 g ai/ha) | Plant response rating, Ragweed ([10]; 500 g ai/ha) | Pigweed plant response rating ([11]; 125 g ai/ha) | Pigweed plant response rating ([11]; 500 g ai/ha) | further results |
| --- | --- | --- | --- | --- | --- | --- | --- | --- | --- | --- | --- | --- | --- | --- | --- | --- | --- | --- | --- | --- | --- |
| O=C1NCCC(c2cccc(OC(F)(F)F)c2)C1C(=O)Nc1cccc(F)c1F (racemic) [Compound 39] | 30 | 70 | 0 | 60 | 0 | 50 | 0 | 30 | 0 | 0 | 90 | 90 | 0 | 0 | 80 | 90 | 0 | 0 | 0 | 10 | Plant response rating ([9]; 250 g ai/ha): 0; Plant response rating ([12]; 250 g ai/ha): 0; Ragweed plant response rating ([13]; 125 g ai/ha): 0; Ragweed plant response rating ([13]; 500 g ai/ha): 0; Plant response rating ([14]; 250 g ai/ha): 65; Plant response rating, Pigweed ([15]; 125 g ai/ha): 0; Plant response rating, Pigweed ([15]; 500 g ai/ha): 0; Plant response rating ([16]; 250 g ai/ha): 100; Plant response rating, Kochia ([17]; 125 g ai/ha): 0; Plant response rating, Kochia ([17]; 500 g ai/ha): 0; Plant response rating, Barnyardgrass ([18]; 125 g ai/ha): 80; Plant response rating, Barnyardgrass ([18]; 500 g ai/ha): 80; Plant response rating, Foxtail, Giant ([19]; 125 g ai/ha): 70; Plant response rating, Foxtail, Giant ([19]; 500 g ai/ha): 90; Plant response rating, Corn ([20]; 125 g ai/ha): 0; Plant response rating, Corn ([20]; 500 g ai/ha): 50 |
| O=C1NCCC(c2cccc(OC(F)F)c2)C1C(=O)Nc1ccc(F)c(F)c1F (racemic) [Compound 44] | 0 | 0 | 0 | 20 | 0 | 20 | 0 | 0 | 0 | 20 | 80 | 90 | 0 | 0 | 60 | 90 | 0 | 0 | 0 | 0 | Plant response rating ([9]; 500 g ai/ha): 0; Plant response rating ([12]; 500 g ai/ha): 0; Ragweed plant response rating ([13]; 125 g ai/ha): 0; Ragweed plant response rating ([13]; 500 g ai/ha): 30; Plant response rating ([14]; 500 g ai/ha): 60; Plant response rating, Pigweed ([15]; 125 g ai/ha): 0; Plant response rating, Pigweed ([15]; 500 g ai/ha): 0; Plant response rating ([16]; 500 g ai/ha): 85; Plant response rating, Kochia ([17]; 125 g ai/ha): 0; Plant response rating, Kochia ([17]; 500 g ai/ha): 0; Plant response rating, Barnyardgrass ([18]; 125 g ai/ha): 20; Plant response rating, Barnyardgrass ([18]; 500 g ai/ha): 80; Plant response rating, Foxtail, Giant ([19]; 125 g ai/ha): 30; Plant response rating, Foxtail, Giant ([19]; 500 g ai/ha): 80; Plant response rating, Corn ([20]; 125 g ai/ha): 0; Plant response rating, Corn ([20]; 500 g ai/ha): 0 |
